Reference: patent US7195893B2, “Nucleic acids encoding α2δ calcium channel subunits and methods for making and using them” (Neuromed Pharmaceuticals Ltd., priority 2003, dated 2007)
Counter-ions that a name gives are not always drawn.

Experiments:
[1] = target: T1, rat α1B+β1b+chicken α2δ Ca2+ channel (Rattus norvegicus, UniProt Q02294); assay: whole-cell patch clamp screening for calcium channel blockers; assay type: cell-based; conditions: 600 nM, HEK cells, n=3, FIG. 4
T1 construct: expressed in transfected cells; host or cells: HEK 293
T1 sequence (Q02294 whole entry): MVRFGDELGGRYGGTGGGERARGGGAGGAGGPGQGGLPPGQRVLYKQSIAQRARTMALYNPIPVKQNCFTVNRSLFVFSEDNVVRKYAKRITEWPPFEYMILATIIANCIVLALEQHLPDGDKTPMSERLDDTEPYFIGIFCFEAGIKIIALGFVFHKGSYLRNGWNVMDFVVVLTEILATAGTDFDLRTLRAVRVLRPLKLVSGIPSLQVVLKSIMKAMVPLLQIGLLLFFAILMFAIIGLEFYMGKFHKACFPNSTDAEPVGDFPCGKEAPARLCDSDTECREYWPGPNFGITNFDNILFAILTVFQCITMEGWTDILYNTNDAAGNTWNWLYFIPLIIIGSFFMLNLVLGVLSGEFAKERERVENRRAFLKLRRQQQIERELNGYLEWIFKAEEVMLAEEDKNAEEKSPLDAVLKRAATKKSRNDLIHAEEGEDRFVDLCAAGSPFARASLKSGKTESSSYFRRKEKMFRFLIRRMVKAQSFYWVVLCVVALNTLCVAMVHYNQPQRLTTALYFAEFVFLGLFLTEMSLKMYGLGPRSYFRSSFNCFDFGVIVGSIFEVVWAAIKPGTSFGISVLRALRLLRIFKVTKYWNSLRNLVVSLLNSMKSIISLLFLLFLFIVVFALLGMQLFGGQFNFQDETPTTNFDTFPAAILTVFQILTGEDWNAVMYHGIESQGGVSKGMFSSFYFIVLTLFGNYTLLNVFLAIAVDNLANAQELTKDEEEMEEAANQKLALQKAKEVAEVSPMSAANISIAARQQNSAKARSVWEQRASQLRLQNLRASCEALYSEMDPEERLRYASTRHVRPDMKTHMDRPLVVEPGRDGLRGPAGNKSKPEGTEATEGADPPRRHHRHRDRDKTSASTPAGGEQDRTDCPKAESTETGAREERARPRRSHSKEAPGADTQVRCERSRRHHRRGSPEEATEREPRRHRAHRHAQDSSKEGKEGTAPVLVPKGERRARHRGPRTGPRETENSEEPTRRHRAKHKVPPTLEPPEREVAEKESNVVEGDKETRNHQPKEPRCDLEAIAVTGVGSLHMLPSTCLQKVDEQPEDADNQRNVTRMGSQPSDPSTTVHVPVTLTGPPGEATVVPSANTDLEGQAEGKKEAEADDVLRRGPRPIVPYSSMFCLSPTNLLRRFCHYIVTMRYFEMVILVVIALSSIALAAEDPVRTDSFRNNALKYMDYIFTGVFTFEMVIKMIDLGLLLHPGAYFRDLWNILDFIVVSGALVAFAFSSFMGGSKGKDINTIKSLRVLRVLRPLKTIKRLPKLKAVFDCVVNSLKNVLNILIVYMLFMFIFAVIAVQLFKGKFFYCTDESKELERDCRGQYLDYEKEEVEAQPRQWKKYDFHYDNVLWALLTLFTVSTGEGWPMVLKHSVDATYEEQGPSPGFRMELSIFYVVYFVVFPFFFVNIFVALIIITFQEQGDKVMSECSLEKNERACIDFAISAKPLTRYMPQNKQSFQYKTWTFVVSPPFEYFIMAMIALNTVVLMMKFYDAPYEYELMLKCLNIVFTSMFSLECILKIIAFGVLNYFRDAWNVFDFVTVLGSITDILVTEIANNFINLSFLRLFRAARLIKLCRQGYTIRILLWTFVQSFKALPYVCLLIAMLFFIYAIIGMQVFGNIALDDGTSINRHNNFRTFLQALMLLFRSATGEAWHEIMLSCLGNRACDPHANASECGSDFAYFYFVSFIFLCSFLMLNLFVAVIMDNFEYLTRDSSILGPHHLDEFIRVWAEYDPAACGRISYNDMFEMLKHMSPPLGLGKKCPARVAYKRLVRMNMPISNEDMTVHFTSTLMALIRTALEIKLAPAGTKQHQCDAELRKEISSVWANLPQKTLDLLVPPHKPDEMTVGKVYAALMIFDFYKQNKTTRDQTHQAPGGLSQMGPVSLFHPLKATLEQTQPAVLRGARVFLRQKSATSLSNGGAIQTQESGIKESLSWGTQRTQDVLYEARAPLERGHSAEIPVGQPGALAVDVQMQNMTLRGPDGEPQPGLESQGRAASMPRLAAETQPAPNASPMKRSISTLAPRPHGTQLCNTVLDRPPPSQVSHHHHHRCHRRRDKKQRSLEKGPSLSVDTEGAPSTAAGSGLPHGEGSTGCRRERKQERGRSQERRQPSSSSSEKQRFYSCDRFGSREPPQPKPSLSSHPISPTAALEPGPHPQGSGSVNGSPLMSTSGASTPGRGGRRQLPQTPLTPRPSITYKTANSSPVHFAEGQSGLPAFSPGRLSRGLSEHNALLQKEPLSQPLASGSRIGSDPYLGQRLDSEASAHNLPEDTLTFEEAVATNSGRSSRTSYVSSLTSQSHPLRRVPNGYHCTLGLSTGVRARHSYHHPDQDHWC
Method: After an incubation period of 24 to 72 hrs, the culture medium was removed and replaced with an external recording solution containing (in mM) 5 BaCl, 129 CsCl, 1 MgCl2, 10 HEPES, 10 glucose, pH 7.4 with CsOH. Whole-cell patch clamp recordings were made with an Axopatch 200B amplifier (Axon Instruments, USA). Recording electrodes with typical resistances of 4–8 MΩ were backfilled with (in mM) 108 caesium-methansulfonate, 2 MgCl2, 10 HEPES, 11 EGTA, 2 ATP, pH 7.2 with CsOH. To create command potentials and acquire data, Clampex 8.2 software (Axon Instruments, USA) and a Digidata 1322A A/D converter interface (Axon Instrument, USA) were used. Currents were elicited at test potential of +20 mV (50 ms duration) from a holding potential of −80 mV. Leak and capacitance currents were subtracted on-line with a standard P/4 protocol. Evoked currents were filtered by a low-pass Bessel filter set at 1 kHz. Signals were acquired at 2.02 kHz and analyzed offline using pClamp 8.2 (Axon Instruments, USA) and Origin (OriginLab Corporation, USA) software. The effects of co-expressing the α2δ subunit of Example 1 with the rat α1B+β1b calcium channel subunits were tested by comparing average current density (Ipeak/cell capacitance) with and without α2δ.
To screen for calcium channel blockers, the whole-cell patch clamp recording technique used was as described in Example 2. […]

α2δ-2 = α2δ-2 (Homo sapiens, UniProt Q9NY47); conditions: Marais et al. 2001; cited from earlier work
Chain of α2δ-2 (Q9NY47 19-1150): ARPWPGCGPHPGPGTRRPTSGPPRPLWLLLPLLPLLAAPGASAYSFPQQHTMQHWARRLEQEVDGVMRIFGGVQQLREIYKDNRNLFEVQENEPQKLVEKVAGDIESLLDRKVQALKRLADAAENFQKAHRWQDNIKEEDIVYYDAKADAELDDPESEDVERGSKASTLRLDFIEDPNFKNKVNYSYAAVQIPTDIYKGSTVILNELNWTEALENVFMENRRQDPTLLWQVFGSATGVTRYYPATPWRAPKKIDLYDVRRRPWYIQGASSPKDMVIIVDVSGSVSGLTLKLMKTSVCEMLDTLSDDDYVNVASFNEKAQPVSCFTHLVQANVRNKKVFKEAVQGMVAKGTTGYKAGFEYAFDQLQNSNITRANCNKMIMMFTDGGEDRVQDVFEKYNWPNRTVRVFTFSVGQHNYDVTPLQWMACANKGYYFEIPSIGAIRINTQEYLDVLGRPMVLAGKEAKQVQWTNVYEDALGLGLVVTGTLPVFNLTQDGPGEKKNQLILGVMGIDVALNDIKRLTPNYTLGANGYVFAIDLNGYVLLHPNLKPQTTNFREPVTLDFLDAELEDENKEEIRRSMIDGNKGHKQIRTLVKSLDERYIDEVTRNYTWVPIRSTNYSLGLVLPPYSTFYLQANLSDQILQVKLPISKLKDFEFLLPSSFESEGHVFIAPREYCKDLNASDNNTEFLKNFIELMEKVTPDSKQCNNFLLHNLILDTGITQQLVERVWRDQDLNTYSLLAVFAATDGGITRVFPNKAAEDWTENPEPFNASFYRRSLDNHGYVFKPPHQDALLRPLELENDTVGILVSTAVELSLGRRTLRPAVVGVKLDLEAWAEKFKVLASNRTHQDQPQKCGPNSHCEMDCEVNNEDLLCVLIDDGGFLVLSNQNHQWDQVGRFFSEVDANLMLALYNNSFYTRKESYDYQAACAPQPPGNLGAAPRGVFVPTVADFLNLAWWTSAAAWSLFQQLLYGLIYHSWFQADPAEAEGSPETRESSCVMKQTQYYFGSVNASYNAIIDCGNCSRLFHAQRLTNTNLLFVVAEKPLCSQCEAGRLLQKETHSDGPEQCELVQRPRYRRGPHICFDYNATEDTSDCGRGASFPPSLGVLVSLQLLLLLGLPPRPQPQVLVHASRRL

rat α1B+β1b Ca2+ channel = assay: whole-cell patch clamp, average current density with and without α2δ in transfected HEK 293 cells; assay type: cell-based; conditions: HEK 293, 6 cells, test potential +20 mV, holding −80 mV, mean±S.E.M.
Method: Human embryonic kidney cells, HEK 293 (ATCC# CRL 1573) were grown in standard DMEM medium supplemented with 2 mM glutamine and 10% fetal bovine serum and transfected by a standard calcium-phosphate-DNA co-precipitation method or by lipofection with the full-length chicken α2δ-1 calcium channel cDNA in the mammalian expression vector pBK-RSV (see Current protocols in Molecular Biology): alone or in combination with expression vectors encoding α1 and β subunits, and with vectors expressing green fluorescent protein (GFP).
After an incubation period of 24 to 72 hrs, the culture medium was removed and replaced with an external recording solution containing (in mM) 5 BaCl, 129 CsCl, 1 MgCl2, 10 HEPES, 10 glucose, pH 7.4 with CsOH. Whole-cell patch clamp recordings were made with an Axopatch 200B amplifier (Axon Instruments, USA). Recording electrodes with typical resistances of 4–8 MΩ were backfilled with (in mM) 108 caesium-methansulfonate, 2 MgCl2, 10 HEPES, 11 EGTA, 2 ATP, pH 7.2 with CsOH. To create command potentials and acquire data, Clampex 8.2 software (Axon Instruments, USA) and a Digidata 1322A A/D converter interface (Axon Instrument, USA) were used. […] Signals were acquired at 2.02 kHz and analyzed offline using pClamp 8.2 (Axon Instruments, USA) and Origin (OriginLab Corporation, USA) software. […]

O=C(CC(c1ccccc1)c1ccccc1)N1CCN(C(c2ccccc2)c2ccccc2)CC1 [NMED 160 (HCl)]
inhibition of Ca2+ channel current (average current density) [1]: inhibition

NCC1(CC(=O)O)CCCCC1 [Gabapentin]
binding to α2δ-2 (α2δ-2): bind

B1: chicken α2δ subunit: α2δ-1 calcium channel subunit of White Leghorn chicken, SEQ ID NO:2, 1,087 amino acids (protein, listed as Gallus domesticus)
chain: MAAGWLLVFSLTLFQSLVMNHSSEGPFPSPTTIKSWVDKMQEDLITLARTASGVEQLAAIYLKNKDLYTVEANNPRQLVEIAARDIEKLLSNRSKALVRLAKEAEKYQASHQWRDEFGNNDIIYYNAKDDQNDPEKNDTESGSQRIRPVFEEDPVFRRQTSYQHAAVHIPTDIYEGSTIVLNELNWTAALDDVFKRNREEDPTLLWQVFGSATGLARYYPASPWVDNSRTPNKIDLYDVRRRPWYIQGAASPKDMLILVDASGSVSGLTLKLIRTSVIEMLETLSDDDFVNVVSFNNNAQNVSCFNHLVQANVRNKKKLKEAVDKISAKGITDYKKGFSYAFEQLLNHSVSRANCNKIIMLFTDGGEERAQEIFHKYNEDKKVRVFTFSVGQHNYDKGPIQWMACENKGYYYEIPSIGAIRINTQEYLDVLGRPMVLAGEKAKQVQWTNVYLDALELGLVITGTLPVFNLTKEQNGKINQLILGVMGVDVSLEDIKKLTPRFTLCPNGYYFAIDPNGYVLLHPNLQPKNPKSQEPVTLDFLDAELENDIKVEIRKKMIDGESGEKTFETLVKSQDERYIDKGNRTYTWTAVNGTDYSLALVLPSYSFYYIKAKIEEPITQARLEIKKDSETLKIDHFDEAGYTFIAPREYCTDVKKSENNTEFLLNFNEFIDRNTPSSPSCNTDMVIRVLLDAGFTNELAQNYWSKLYLDGVVAQFVVTDGGITRVFPKRAGEDWLENAETYEVSFYKRSLDNDNYIFTAPYYNKSGANSYESGIMVSKAVEITINGKLLKPAVVGIKIDAMKWMENFTTTTIKSLCNSEICGCEKNSMHVDCVILDDGGFLLMSNRDEYTHQIGRFFGEIDPGLMRNLINMSLYAFNKSYDYQSVCDPEEEPKQGAGLRSAYVPTIADILQLGWWASAAAWSILQQLFLSLTFPRFLEAADMEDDDFSTALPKTSCITEQTQYFFENDDKSFIGIVDCINCSRLYHAEKISNTNLVFIISDSQLLCRSCDPKPLMQAEKPDEGPNPCEMVKQPRYRKGPDVCFDEAKQEDSADCGGASGLSPSLWSMVGIQLVLLWLLSGSRHYQL
mean current density when coexpressed with chicken α2δ subunit (rat α1B+β1b Ca2+ channel): −74.5±14.0 pA/pF
